Assay results as given in patent publication US20260217698A1 (BEYANG THERAPEUTICS CO., LTD., priority 2022, published 2026).

Columns and labels:
VEGFR2 = VEGFR2 (Homo sapiens, UniProt P35968); assay: Kinase inhibition, Mobility Shift Assay/IMAP, VEGFR2; format: biochemical; set-up: purchased Carna 08-191
Source text: (§1) This assay directly monitored the ability of compounds to inhibit kinase phosphorylation by measuring non-phosphorylated and phosphorylated substrates in kinase reactions by using Mobility Shift Assays/IMAP™ analysis.
(§2) Read the conversion ratio data on CaliperEZ Reader II. Convert conversion rates into inhibition ratio data.
(§3) “Min” indicates the readout of the control well without the addition of enzymes; and “Max” indicates the readout of the control well with the addition of DMSO Fit IC50 values with XL Fit excel add-in version […].
(§4) X indicates the log value of compound concentration, and Y indicates the inhibition ratio (% inhibition).

EGFR = molecular target: T1, EGFR (Homo sapiens, UniProt P00533); assay: Kinase inhibition, Mobility Shift Assay/IMAP, EGFR; format: biochemical
T1 construct: purchased Carna 08-115
Source text: as §1, §2, §3, §4

melanin = assay: Binding capacity of compounds to melanin; format: in vitro ADME, cuttlefish (Sepia officinalis); conditions: cuttlefish (Sepia officinalis), melanin suspension (1 mg/mL); 1 mg/mL melanin in PBS pH 7.4, 2 μM compound, 2 h at 37° C.; read-out: Fu % (percentage of free drug)
Source text: Pigmented eye tissues contain melanin in intracellular melanosomes. Drugs bind to melanin to varying degrees, ranging from non-binding to extensive binding. Therefore, melanin binding is an important feature that affects drug delivery and biodistribution in the eye. The binding capacity of the compound to the melanin must be considered in the development of ophthalmic drugs.
Melanin was derived from the melanin of cuttlefish (Sepia officinalis) and was commercially available from Sigma Aldrich (St Louis, MO).
First, prepare 1 mg/mL melanin suspension with PBS (pH 7.4). As a washing step for the matrix, centrifuge the suspended particles for 5 min at 3000 rpm. Resuspend the resulting particles in a fresh PBS buffer, heat to 37° C. over continuous shaking and incubate it for 1 h. Accurately pipette 2 μL of the test stock solution (0.1 mM) into 98 μL of melanin suspension (1 mg/mL) to achieve a final incubation concentration of 2 μM. Similarly, accurately pipette 2 μL of the stock solution (0.1 mM) to 98 μL of PBS buffer (containing 0.1% BSA) as a blank control sample. Incubate the samples in a shaker (80-90 rpm) for 2 h at 37° C. Then, centrifuge the samples at room temperature. Pipette 50 μL of the supernatant and add 50 μL of precipitant (containing an internal standard). After protein precipitation of all the above samples, centrifuge the samples to collect the supernatants, dilute the supernatants with water (if necessary) and inject them for analysis. At the same time, measure the positive controls, including the high-binding compounds Sunitinib and chloroquine and the low-binding compound celecoxib. Establish an LC-MS/MS method for determining compound concentrations, and calibrate the peak area ratio of analyte/internal standard (Analyte/AIS) in the measured sample by the dilution factor to take it as an alternative concentration for the sample for data processing. The binding rate (Fb) of a compound in melanin was calculated as: […]
Ctest was the concentration of the compound in the melanin-incubated sample or the peak area ratio of the test compound to the internal standard. Ccontrol was the concentration of the compound in the blank control sample or the peak area ratio of the test compound to the internal standard. […]

T1 sequence (P00533 669-1210 limits assumed): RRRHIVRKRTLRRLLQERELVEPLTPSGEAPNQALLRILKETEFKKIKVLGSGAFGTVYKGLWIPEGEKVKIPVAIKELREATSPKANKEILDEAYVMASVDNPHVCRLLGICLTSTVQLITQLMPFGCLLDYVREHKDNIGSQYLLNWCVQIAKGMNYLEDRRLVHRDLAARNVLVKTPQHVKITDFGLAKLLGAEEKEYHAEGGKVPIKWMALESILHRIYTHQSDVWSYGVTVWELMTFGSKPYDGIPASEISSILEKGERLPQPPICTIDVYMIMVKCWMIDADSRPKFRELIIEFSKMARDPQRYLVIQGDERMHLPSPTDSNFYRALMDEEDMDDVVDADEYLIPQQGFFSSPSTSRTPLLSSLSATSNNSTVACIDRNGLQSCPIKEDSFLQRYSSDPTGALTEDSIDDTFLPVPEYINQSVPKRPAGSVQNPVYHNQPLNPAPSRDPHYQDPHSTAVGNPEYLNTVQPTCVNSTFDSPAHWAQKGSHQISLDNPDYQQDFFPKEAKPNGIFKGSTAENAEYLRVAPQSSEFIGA
Chain of VEGFR2 (P35968 790-1356 limits assumed): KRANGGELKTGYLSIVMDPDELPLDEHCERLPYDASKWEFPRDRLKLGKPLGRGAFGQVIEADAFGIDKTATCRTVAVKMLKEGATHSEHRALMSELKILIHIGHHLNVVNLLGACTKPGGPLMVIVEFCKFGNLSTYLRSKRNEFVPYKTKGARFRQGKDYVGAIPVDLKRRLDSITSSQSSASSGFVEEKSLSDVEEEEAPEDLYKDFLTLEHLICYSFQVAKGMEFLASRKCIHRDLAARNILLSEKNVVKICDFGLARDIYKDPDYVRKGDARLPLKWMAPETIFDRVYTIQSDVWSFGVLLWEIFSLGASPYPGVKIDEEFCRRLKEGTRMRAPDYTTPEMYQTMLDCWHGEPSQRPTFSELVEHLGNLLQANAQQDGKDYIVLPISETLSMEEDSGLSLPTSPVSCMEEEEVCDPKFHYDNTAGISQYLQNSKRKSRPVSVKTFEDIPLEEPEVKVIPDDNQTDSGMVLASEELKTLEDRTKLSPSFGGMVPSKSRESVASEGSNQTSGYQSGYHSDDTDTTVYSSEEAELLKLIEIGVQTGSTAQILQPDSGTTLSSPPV

| Compound | IC50 (VEGFR2) [nM] | IC50 (EGFR) [nM] | fraction unbound at 2 h, 2 μM (melanin) |
| --- | --- | --- | --- |
| Cn1nc(COc2nsc(NC(=O)NCCCCN3CCCC3)c2C(N)=O)c2ccccc21 [Compound T002, 3-((1-methyl-1H-indazol-3-yl)methoxy)-5-(3-(4-(pyrrolidin-1-yl)butyl)ureido)isothiazole-4-carboxamide] | 130 | – | – |
| NC(=O)c1c(OCc2cccc(OC3CC3)c2)nsc1NC(=O)NCCCCN1CCCC1 [Compound T003, 3-((3-cyclopropoxybenzyl)oxy)-5-(3-(4-(pyrrolidin-1-yl)butyl)ureido)isothiazole-4-carboxamide] | 112 | – | – |
| Cn1ncc2c(COc3nsc(NC(=O)NCCCCN4CCCC4)c3C(N)=O)cccc21 [Compound T004, 3-((1-methyl-1H-indazol-4-yl)methoxy)-5-(3-(4-(pyrrolidin-1-yl)butyl)ureido)isothiazole-4-carboxamide] | 163 | – | – |
| Cc1cc(COc2nsc(NC(=O)NCCCCN3CCCC3)c2C(N)=O)nn1C [Compound T009, 3-((1,5-dimethyl-1H-pyrazol-3-yl)methoxy)-5-(3-(4-(pyrrolidin-1-yl)butyl)ureido)isothiazole-4-carboxamide] | 217 | – | – |
| COc1cccc(COc2nsc(NC(=O)NCCCCN3CCCC3)c2C(N)=O)c1OC [Compound T032, 3-((2,3-dimethoxybenzyl)oxy)-5-(3-(4-(pyrrolidin-1-yl)butyl)ureido)isothiazole-4-carboxamide] | 56.8 | 39600 | – |
| CC(C)(C)OC(=O)N1CCN(CCn2cc(Nc3snc(OCc4c(F)cc(Br)cc4F)c3C(N)=O)cn2)CC1 [Compound T046] | 62 | – | – |
| CC(C)NC(=O)c1cccc(COc2nsc(NC(=O)NCCCCN3CCCC3)c2C(N)=O)c1 [Compound T057, 3-((3-(isopropylcarbamoyl)benzyl)oxy)-5-(3-(4-(pyrrolidin-1-yl)butyl)ureido)isothiazole-4-carboxamide] | 152 | > 60000 | – |
| COc1cc(COc2nsc(NC(=O)NCCCCN3CC[C@H](F)C3)c2C(N)=O)cc(OC)c1 [Compound T062, (S)-3-((3,5-dimethoxybenzyl)oxy)-5-(3-(4-(3-fluoropyrrolidin-1-yl)butyl)ureido)isothiazole-4-carboxamide] | 58.8 | > 60000 | 0.0195 |
| CCOc1ccc(F)c(COc2nsc(NC(=O)NCCCCN3CCCC3)c2C(N)=O)c1 [Compound T096, 3-((5-ethoxy-2-fluorobenzyl)oxy)-5-(3-(4-(pyrrolidin-1-yl)butyl)ureido)isothiazole-4-carboxamide] | – | – | 0.0792 |
| NC(=O)c1c(OCc2ccc3c(c2)OCCC3)nsc1NC(=O)NCCCCN1CCCC1 [Compound T097, 3-(chroman-7-ylmethoxy)-5-(4-pyrrolidin-1-ylbutylcarbamoylamino)isothiazole-4-carboxamide] | – | – | 0.0817 |
| NC(=O)c1c(OCc2cc(C(=O)NC3CC3)ccc2F)nsc1NC(=O)NCCCCN1CC[C@H](O)C1 [Compound T099] | – | – | 0.0884 |
| CN1CCN(CCCNC(=O)Nc2snc(OCc3cccc(C(=O)CC4CC4)c3)c2C(N)=O)CC1 [Compound T110, 3-[[3-(2-cyclopropylacetyl)phenyl]methoxy]-5-[3-(4-methylpiperazin-1-yl)propylcarbamoylamino]isothiazole-4-carboxamide] | – | – | 0.0485 |
| COc1cc(F)c(F)c(COc2nsc(NC(=O)NCCCCN3CCCC3)c2C(N)=O)c1F [Compound T142, 5-(4-pyrrolidin-1-ylbutylcarbamoylamino)-3-[(2,3,6-trifluoro-5-methoxy-phenyl)methoxy]isothiazole-4-carboxamide] | 6.6 | 31000 | – |
| NC(=O)c1c(OCc2c(F)ccc(OC(F)F)c2F)nsc1NC(=O)NCCCCN1CCCC1 [Compound T148, 3-[[3-(difluoromethoxy)-2,6-difluoro-phenyl]methoxy]-5-(4-pyrrolidin-1-ylbutylcarbamoylamino)isothiazole-4-carboxamide] | 16 | 4010 | – |
| NC(=O)c1c(OCc2ccc(F)c(C(=O)NC3CC3)c2)nsc1NC(=O)NCCCCN1CC[C@@H](O)C1 [Compound T150, 3-[[3-(cyclopropylcarbamoyl)-4-fluoro-phenyl]methoxy]-5-[4-[(3R)-3-hydroxypyrrolidin-1-yl]butylcarbamoylamino]isothiazole-4-carboxamide] | 1.2 | 7420 | – |
| NC(=O)c1c(OCc2cc(C(=O)NC3CC3)ccc2F)nsc1NC(=O)NCCCN1CCNCC1 [Compound T153, 3-[[5-(cyclopropylcarbamyl)-2-fluoro-phenyl]methoxy]-5-(3-piperazin-1-ylpropylcarbamylamino)isothiazol-4-formamide] | 0.66 | – | – |
| CC(=O)N1CCN(CCCNC(=O)Nc2snc(OCc3cc(C(=O)NC4CC4)ccc3F)c2C(N)=O)CC1 [Compound T156, 5-[3-(4-acetylpiperazin-1-yl)propylcarbamoylamino]-3-[[5-(cyclopropylcarbamoyl)-2-fluoro-phenyl]methoxy]isothiazole-4-carboxamide] | 1.44 | – | – |
| CC(=O)N1CCN(CCCNC(=O)Nc2snc(OCc3ccc(F)c(C(=O)NC4CC4)c3)c2C(N)=O)CC1 [Compound T157, 5-[3-(4-acetylpiperazin-1-yl)propylcarbamoylamino]-3-[[3-(cyclopropylcarbamoyl)-4-fluoro-phenyl]methoxy]isothiazole-4-carboxamide] | 2.5 | 15200 | – |
| NC(=O)c1c(OCc2cc(C(=O)NC3CC3)ccc2F)nsc1N [Compound T159, 5-amino-3-[[5-(cyclopropylcarbamoyl)-2-fluoro-phenyl]methoxy]isothiazole-4-carboxamide] | 41.7 | 8770 | – |
| CCN1CCN(CCCNC(=O)Nc2snc(OCc3cc(C(=O)NC4CC4)ccc3F)c2C(N)=O)CC1 [Compound T163, 3-[[5-(cyclopropylcarbamoyl)-2-fluoro-phenyl]methoxy]-5-[3-(4-ethylpiperazin-1-yl)propylcarbamoylamino]isothiazole-4-carboxamide] | 0.32 | 11200 | – |
| CCN1CCN(CCCNC(=O)Nc2snc(OCc3ccc(F)c(C(=O)NC4CC4)c3)c2C(N)=O)CC1 [Compound T164, 3-[[3-(cyclopropylcarbamoyl)-4-fluoro-phenyl]methoxy]-5-[3-(4-ethylpiperazin-1-yl)propylcarbamoylamino]isothiazole-4-carboxamide] | 1.25 | 12200 | – |
| NC(=O)c1c(OCc2ccc(F)c(C(=O)NC3CC3)c2)nsc1NC(=O)NCCCN1CCN(C2CC2)CC1 [Compound T165, 3-[[3-(cyclopropylcarbamoyl)-4-fluoro-phenyl]methoxy]-5-[3-(4-cyclopropylpiperazin-1-yl)propylcarbamoylamino]isothiazole-4-carboxamide] | 1.46 | 31600 | – |
| NCCCNC(=O)Nc1snc(OCc2cc(C(=O)NC3CC3)ccc2F)c1C(N)=O [Compound T167, 5-(3-aminopropylcarbamoylamino)-3-[[5-(cyclopropylcarbamoyl)-2-fluoro-phenyl]methoxy]isothiazole-4-carboxamide] | 0.95 | – | – |
| NC(=O)c1ccc(F)c(COc2nsc(NC(=O)NCCCN3CC[C@H](F)C3)c2C(N)=O)c1 [Compound T168, 3-[(5-carbamoyl-2-fluoro-phenyl)methoxy]-5-[3-[(3S)-3-fluoropyrrolidin-1-yl]propylcarbamoylamino]isothiazole-4-carboxamide] | 8.45 | – | – |
| NC(=O)c1c(OCc2cc(C(=O)NC3CC3)ccc2F)nsc1NC(=O)NCCCO [Compound T170, 3-[[5-(cyclopropylcarbamoyl)-2-fluoro-phenyl]methoxy]-5-(3-hydroxypropylcarbamoylamino)isothiazole-4-carboxamide] | 1.12 | – | – |
| CC(C)(C)OC(=O)CCNC(=O)Nc1snc(OCc2cc(C(=O)NC3CC3)ccc2F)c1C(N)=O [Compound T173, Tert-butyl 3-[[4-carbamoyl-3-[[5-(cyclopropylcarbamoyl)-2-fluoro-phenyl]methoxy]isothiazol-5-yl]carbamoylamino]propanoate] | 1.97 | 5910 | – |
